The subject of data set [1] is Escherichia coli. Kind of data set: Antibacterial activity against Escherichia coli by middle-brook 7H10 agar proportion method. Format: functional, organism-based.
The subject of data set [2] is Staphylococcus aureus. Kind of data set: Antibacterial activity against Staphylococcus aureus by middle-brook 7H10 agar proportion method. It is filed as functional, organism-based.
In data set [3] the test system is Mycobacterium avium-intracellulare. Kind of data set: Antimycobacterial activity against Mycobacterium avium-intracellulare by middle-brook 7H10 agar proportion method. It is filed as functional.
In data set [4] the test system is Mus musculus. In words: Toxicity in mouse at 10 mg/kg, ip. Format: organism-based. Further details: dose 10 mg/kg, route intraperitoneal. To be noted: in vivo.
Data set [5] relates to Mycobacterium tuberculosis. In words: Antimycobacterial activity against Mycobacterium tuberculosis by middle-brook 7H10 agar proportion method. It is filed as functional.

This note sets out measurements from ChEMBL document CHEMBL1145715, “Massetolides A-H, antimycobacterial cyclic depsipeptides produced by two pseudomonads isolated from marine habitats” (J Nat Prod, 1997).

One may read the MIC as the least concentration at which growth counts as inhibited. Read a high MIC as a less susceptible organism.

The structures appear in SMILES notation. Converted amounts (≈) assume the structure as drawn. The source made the active and inactive calls. The rule behind the calls is not given here.

For the compound `CCCCCCC[C@H](O)CC(=O)N[C@@H](CC(C)C)C(=O)N[C@H](CCC(=O)O)C(=O)N[C@H]1C(=O)N[C@H]([C@H](C)CC)C(=O)N[C@@H](CC(C)C)C(=O)N[C@H](CO)C(=O)N[C@@H](CC(C)C)C(=O)N[C@H](CO)C(=O)N[C@@H]([C@H](C)CC)C(=O)O[C@@H]1C`, the result in data set [1] and in data set [2] was inactive.
For `CCCCCCC[C@H](O)CC(=O)N[C@@H](CC(C)C)C(=O)N[C@H](CCC(=O)O)C(=O)N[C@H]1C(=O)N[C@H]([C@@H](C)CC)C(=O)N[C@@H](CC(C)C)C(=O)N[C@H](CO)C(=O)N[C@@H](CC(C)C)C(=O)N[C@H](CO)C(=O)N[C@@H]([C@@H](C)CC)C(=O)O[C@@H]1C` [MASSETOLIDE A], the MIC is 2.5 µg/mL (≈ 2.19 µM) in data set [3] and 5 µg/mL (≈ 4.38 µM) in data set [5]. Besides, the Activity entry in data set [4] was “Non-toxic”.
